# Data reported in publication PMC6557688 (FEBS letters, 2019).
# Target: recombinant Nudt7 (Mus musculus, UniProt Q99P30)
# Assay: CoA diphosphohydrolase assay, protein curves
# Type: biochemical
# Details: MgCl2 or MnCl2
# Sequence of recombinant Nudt7 (Q99P30 whole entry): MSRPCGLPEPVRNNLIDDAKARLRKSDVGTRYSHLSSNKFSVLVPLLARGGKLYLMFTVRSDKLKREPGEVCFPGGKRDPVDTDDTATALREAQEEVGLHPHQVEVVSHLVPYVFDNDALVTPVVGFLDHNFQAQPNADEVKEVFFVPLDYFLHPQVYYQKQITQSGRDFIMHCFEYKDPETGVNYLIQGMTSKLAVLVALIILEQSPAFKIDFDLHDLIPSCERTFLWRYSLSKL
compound,measurement,value
CC(C)(COP(=O)(O)OP(=O)(O)OC[C@H]1O[C@@H](n2cnc3c(N)ncnc32)[C@H](O)[C@@H]1OP(=O)(O)O)[C@@H](O)C(=O)NCCC(=O)NCCS [Free CoA],"CoA diphosphohydrolase assay, protein curves",the specific activity of Nudt8 against free CoA was comparable to that of Nudt7
